Measurements as given in patent publication US5973204A (priority 1997, dated 1999).

Assays:
glycine receptors = target: T1, glycine receptors (Rattus norvegicus, UniProt P07727); assay: binding tests, affinity to glycine receptors (% displacement)
T1 construct: from tissue; host or cells: rat spinal cord / brainstem synaptic membranes (inferred from the cited method)
Description: The compounds of the invention have shown in binding tests a higher affinity to glycine receptors (Table I) than a structurally similar compound, i.e. thiocolchicoside.
The interaction of the compositions of the invention with their receptors has been evaluated according to the procedure by A. B. Young and S. H. Snyder reported in Proc. Natl. Acad. Sci U.S.A. 71, 4002, 1974.

[1] = tested on: polysynaptic reflexes induced by strychnine; assay: inhibition of the polysynaptic reflexes induced by strychnine in rabbits; type: in vivo, rabbit; conditions: for reduction of polysynaptic reflexes / removal of the potentiation of strychnine-induced reflexes: rabbits, 1 mg/kg intramuscularly
Description: The inhibition of the polysynaptic reflexes induced by strychnine in rabbits has been studied for the in vivo tests.

[2] = acute toxicity (DL50) in the mouse; conditions: in vivo, iv
Method: The DL50 of the compounds I-III is, in fact, higher than 30 mg/kg i.v. in the mouse, the DL50 of thiocolchicoside being 7.5 mg/kg.

T1 sequence (P07727 29-457): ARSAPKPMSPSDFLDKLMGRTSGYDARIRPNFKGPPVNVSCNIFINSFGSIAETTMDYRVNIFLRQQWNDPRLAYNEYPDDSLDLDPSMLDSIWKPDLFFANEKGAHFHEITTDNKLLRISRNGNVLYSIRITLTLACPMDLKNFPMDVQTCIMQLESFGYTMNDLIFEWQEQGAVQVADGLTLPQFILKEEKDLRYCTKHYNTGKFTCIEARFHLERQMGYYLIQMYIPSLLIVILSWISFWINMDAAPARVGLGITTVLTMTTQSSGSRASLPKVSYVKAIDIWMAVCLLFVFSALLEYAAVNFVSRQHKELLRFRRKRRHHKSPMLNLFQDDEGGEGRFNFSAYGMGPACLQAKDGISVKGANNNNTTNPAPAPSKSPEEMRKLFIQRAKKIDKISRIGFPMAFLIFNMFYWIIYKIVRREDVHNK
T1 sequence (P20781 23-496 partner): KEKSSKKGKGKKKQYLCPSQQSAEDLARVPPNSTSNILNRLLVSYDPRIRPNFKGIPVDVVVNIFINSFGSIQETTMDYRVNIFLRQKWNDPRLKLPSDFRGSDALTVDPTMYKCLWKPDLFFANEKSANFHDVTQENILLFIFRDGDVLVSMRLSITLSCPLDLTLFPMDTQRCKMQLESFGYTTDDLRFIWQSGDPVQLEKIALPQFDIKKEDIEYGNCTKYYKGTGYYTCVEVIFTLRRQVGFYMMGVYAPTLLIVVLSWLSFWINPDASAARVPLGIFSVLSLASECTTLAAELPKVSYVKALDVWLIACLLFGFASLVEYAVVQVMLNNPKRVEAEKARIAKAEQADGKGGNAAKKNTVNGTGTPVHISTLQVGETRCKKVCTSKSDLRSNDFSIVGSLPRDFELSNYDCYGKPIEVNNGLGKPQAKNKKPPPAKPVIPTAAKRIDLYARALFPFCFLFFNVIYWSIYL

| SMILES | inhibition at 0.1 µM (glycine receptors) [%] | inhibition at 1 µM (glycine receptors) [%] | reduction of polysynaptic reflexes [1] [%] | removal of the potentiation of strychnine-induced reflexes [1] | inhibition at 0.5 µM (glycine receptors; 0.5 μM) [%] | minimal effective dose at 1 mg/kg ([1]; Oryctolagus cuniculus, read-out: minimum dose to obtain comparable effects) [mg/kg] | LD50 [2] [mg/kg] |
| --- | --- | --- | --- | --- | --- | --- | --- |
| COc1c(OCC(O)CN)cc2c(c1OC)-c1ccc(SC)c(=O)cc1[C@@H](NC(C)=O)CC2 (some centres unmarked) [Compound III, 3-demethyl-3-(3-amino-2-hydroxypropyl)thiocolchicine] | 50 | 75 | 65 | removing completely | – | – | – |
| COc1c(OCC2CO2)cc2c(c1OC)-c1ccc(SC)c(=O)cc1[C@@H](NC(C)=O)CC2 (some centres unmarked) [Compound I, 3-demethyl-3-glycidylthiocolchicine] | 40 | 85 | 50 | removing completely | – | – | – |
| COc1c(O[C@@H]2O[C@H](CO)[C@@H](O)[C@H](O)[C@H]2O)cc2c(c1OC)-c1ccc(SC)c(=O)cc1[C@@H](NC(C)=O)CC2 [thiocolchicoside, 3-demethyl-thiocolchicine glucoside, reference compound] | 20 | 70 | – | – | 45 | ≥ 5 | 7.5 |
| COc1c(OCC(O)CO)cc2c(c1OC)-c1ccc(SC)c(=O)cc1[C@@H](NC(C)=O)CC2 (some centres unmarked) [Compound II, 3-demethyl-3-(2,3-dihydroxyrpropyl)thiocolchicine] | 35 | 65 | 60 | removing completely | – | – | – |
